According to PubChem BioAssay (NCI):
Several values for one entry are separate records, joined by “and”; a condition that tells them apart may be missing. Identical values can stand only once.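 Following 48 hours of exposure in 96-well plates, responses at five concentrations were used to interpolate endpoints linearly. GI50 marks 50% less growth. TGI marks complete inhibition of growth.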

What was measured:
Test in all cases: NCI tumour cell line growth inhibition, 48 h
[1] = system: EKVX NSCLC
[2] = system: HCT-15 colon
[3] = system: HOP-62 NSCLC
[4] = system: IGROV1 ovarian
[5] = system: OVCAR-5 ovarian
[6] = system: RXF 393 renal
[7] = system: SF-295 CNS
[8] = system: SR leukemia
[9] = system: T-47D breast
[10] = system: UACC-257 melanoma

Structure (SMILES): Cc1ccc(N=Nc2c(O)ccc3cc(S(=O)(=O)O)cc(S(=O)(=O)O)c23)cc1
- TGI [1]: > 100 µM
- TGI [2]: > 100 µM
- TGI [3]: > 100 µM
- TGI [4]: > 100 µM
- TGI [5]: > 100 µM
- TGI [6]: > 100 µM
- TGI [7]: > 100 µM
- TGI [8]: > 100 µM
- TGI [9]: > 100 µM
- TGI [10]: > 100 µM

Structure (SMILES): O=C1/C(=N/O)Cc2c(Br)ccc(Br)c21
- TGI [1]: > 100 µM
- TGI [2]: > 100 µM
- TGI [3]: > 100 µM
- TGI [4]: > 100 µM
- TGI [5]: > 100 µM
- TGI [6]: > 100 µM
- TGI [7]: > 100 µM
- TGI [8]: 74.4 µM
- TGI [9]: > 100 µM
- TGI [10]: > 100 µM

Structure (SMILES): Cn1cc(NC(=O)c2cc(NC(=O)CN=C(N)N)cn2C)cc1C(=O)NCCC(=N)N
- TGI [1]: > 100 µM
- TGI [2]: > 100 µM
- TGI [3]: > 100 µM
- TGI [4]: > 100 µM
- TGI [5]: > 100 µM
- TGI [6]: > 100 µM
- TGI [7]: > 100 µM
- TGI [8]: > 100 µM
- TGI [9]: > 100 µM
- TGI [10]: > 100 µM

Structure (SMILES): C[N+](C)(C)CC1CCCCCCCCCCC1=O (stereo unspecified)
- TGI [1]: > 100 µM
- TGI [2]: > 100 µM
- TGI [3]: > 100 µM
- TGI [4]: > 100 µM
- TGI [5]: > 100 µM
- TGI [6]: > 100 µM
- TGI [7]: > 100 µM
- TGI [8]: > 100 µM
- TGI [9]: > 100 µM
- TGI [10]: > 100 µM

Structure (SMILES): CSc1ccc2c(cc1=O)[C@@H](NC(=O)c1ccc(N)cc1)CCc1cc(O)c(O)c(O)c1-2
- TGI [1]: > 100 µM
- TGI [2]: 26 µM and 42.4 µM
- TGI [3]: 27.8 µM and 34.7 µM
- TGI [4]: > 100 µM
- TGI [5]: 66.3 µM and > 100 µM
- TGI [6]: > 100 µM
- TGI [7]: 39.2 µM and 46.1 µM
- TGI [8]: > 100 µM
- TGI [9]: > 100 µM
- TGI [10]: > 100 µM

Structure (SMILES): NN/C(=N\S(=O)(=O)c1cc2ccccc2s1)Nc1ccc(Cl)cc1
- TGI [1]: 42.2 µM
- TGI [2]: > 100 µM
- TGI [3]: 38.2 µM
- TGI [4]: 36.4 µM
- TGI [5]: 48.2 µM
- TGI [6]: 29.6 µM
- TGI [7]: 43.2 µM
- TGI [8]: 73.9 µM
- TGI [9]: 37.8 µM
- TGI [10]: 37.3 µM

Structure (SMILES): Cc1cn(C2CC(N(O)Cc3ccccc3)C(CO[Si](C)(C)C(C)(C)C)O2)c(=O)[nH]c1=O (stereo unspecified)
- TGI [1]: > 100 µM and 33.9 µM
- TGI [2]: 96.6 µM
- TGI [3]: 36.5 µM and 29.9 µM
- TGI [4]: 44.8 µM and 29.4 µM
- TGI [5]: 42.8 µM and 32.7 µM
- TGI [6]: 26.8 µM
- TGI [7]: 39.6 µM and 31 µM
- TGI [8]: 89.4 µM
- GI50 [9]: 61.7 µM and 18.6 µM
- TGI [9]: > 100 µM and 33.6 µM
- TGI [10]: 67.5 µM and 30 µM

Structure (SMILES): CN1CCC(O)(C(C)(C)C)CC1
- TGI [1]: > 100 µM
- TGI [2]: > 100 µM
- TGI [3]: > 100 µM
- TGI [4]: > 100 µM
- TGI [5]: > 100 µM
- TGI [6]: > 100 µM
- TGI [7]: > 100 µM
- TGI [8]: > 100 µM
- TGI [9]: > 100 µM
- TGI [10]: > 100 µM

Structure (SMILES): O=C1/C(=C/c2ccc([N+](=O)[O-])cc2)C(=O)N(c2ccccc2)C1c1ccccc1 (stereo unspecified)
- TGI [1]: > 10 µM
- TGI [2]: > 10 µM
- TGI [3]: > 10 µM
- TGI [4]: > 10 µM
- TGI [5]: > 10 µM
- TGI [6]: > 10 µM
- TGI [7]: > 10 µM
- TGI [8]: > 10 µM
- TGI [9]: > 10 µM
- TGI [10]: > 10 µM

Structure (SMILES): O=c1cc(-c2ccc(F)cc2)[nH]c2ncc(Cl)cc12
- TGI [1]: > 100 µM
- TGI [2]: > 100 µM
- TGI [3]: > 93.2 µM
- TGI [4]: > 100 µM
- TGI [5]: > 100 µM
- TGI [6]: 89.2 µM
- TGI [7]: 78.5 µM
- TGI [8]: 23.7 µM
- TGI [9]: > 100 µM
- TGI [10]: > 100 µM

Structure (SMILES): Cc1cc(S(=O)(=O)N=C2N(Cc3ccccc3)CCN2Cc2ccccc2)c(S)cc1Cl
- TGI [1]: > 100 µM
- TGI [2]: > 100 µM
- TGI [3]: > 100 µM
- TGI [4]: > 100 µM
- TGI [5]: > 100 µM
- TGI [6]: > 100 µM
- TGI [7]: > 100 µM
- TGI [8]: > 100 µM
- TGI [9]: > 100 µM
- TGI [10]: > 100 µM

Structure (SMILES): COC1=C(OC)C(=O)C(Cc2c(C)nc3sc(C)cn23)=C(C)C1=O
- TGI [1]: 35.1 µM
- TGI [2]: 96.4 µM
- TGI [3]: 35.7 µM
- TGI [4]: 32.2 µM
- TGI [5]: 40.7 µM
- TGI [6]: 42.4 µM
- TGI [7]: 43.7 µM
- TGI [8]: 43.1 µM
- TGI [9]: > 100 µM
- TGI [10]: 26.1 µM

Structure (SMILES): CCOC(=O)CNc1c(OCc2ccccc2)c(=O)c1=O
- TGI [1]: > 100 µM
- TGI [2]: > 100 µM
- TGI [3]: > 100 µM
- TGI [4]: > 100 µM
- TGI [5]: > 100 µM
- TGI [6]: > 100 µM
- TGI [7]: > 100 µM
- TGI [8]: > 100 µM
- TGI [9]: > 100 µM
- TGI [10]: > 100 µM

Structure (SMILES): O=Cc1ccc(OCc2cccc(COc3ccc(/C=N\Nc4ccc([N+](=O)[O-])cc4[N+](=O)[O-])cc3)n2)cc1
- TGI [1]: > 100 µM
- TGI [2]: > 100 µM
- TGI [3]: > 100 µM
- TGI [4]: > 100 µM
- TGI [5]: > 100 µM
- TGI [6]: > 100 µM
- TGI [7]: > 100 µM
- TGI [8]: 75.3 µM
- TGI [9]: > 100 µM
- TGI [10]: > 100 µM

Structure (SMILES): CCOC(=O)/C=C(/C(=O)OCC)n1ccc(=O)n(Cc2cn(COCCOC(C)=O)nn2)c1=O
- TGI [1]: 30.6 µM
- TGI [2]: 55.6 µM
- TGI [3]: > 100 µM
- TGI [4]: 31.9 µM
- TGI [5]: 35.2 µM
- TGI [6]: 56.2 µM
- TGI [7]: > 100 µM
- TGI [8]: 52.6 µM
- TGI [9]: 81 µM
- TGI [10]: 42.4 µM

Structure (SMILES): Cn1c2c(c3ccccc31)CC1c3c(c4ccccc4n3C)CC21 (stereo unspecified)
- TGI [1]: > 100 µM
- TGI [2]: > 100 µM
- TGI [3]: > 100 µM
- TGI [4]: > 100 µM
- TGI [5]: > 100 µM
- TGI [6]: > 100 µM
- TGI [7]: > 100 µM
- TGI [8]: > 100 µM
- TGI [9]: > 100 µM
- TGI [10]: > 100 µM

Structure (SMILES): CC(C)[Si](OC1=C(C(=O)N(C)c2cccc(Cl)c2)CCCC1)(C(C)C)C(C)C
- TGI [1]: 30.1 µM
- TGI [2]: 28.4 µM
- TGI [3]: 32.4 µM
- TGI [4]: 32.3 µM
- TGI [5]: 22.5 µM
- TGI [6]: 18.9 µM
- TGI [7]: 23.3 µM
- TGI [8]: 42.5 µM
- TGI [9]: 18.1 µM
- TGI [10]: 27.8 µM
